The target of experiment [1] is T1, BRAF-GTP-KRAS-G12C complex (Homo sapiens, UniProt P01116+P62937, G12C).
T1 construct: 50 nM of His6-KRas G12C-GTP (1-169); 500 nM of tagless CypA (1-165)
Briefly: KRAS-BRAF complex disruption through competition with CYPA-compound by TR-FRET. Conditions: biochemical BRAF-KRAS G12C-GTP disruption assay EC50, with CYPA. The method in brief:
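His6-KRAS G12C-GTP (1-169, 50 nM) with tagless CypA (1-165, 500 nM) was incubated with compound for 3 h at room temperature in pH 7.3 Hepes/NaCl/MgCl2 buffer containing GST-BRAF RBD. Anti-His Eu (10 nM) and anti-GST APC (50 nM) were then added for 1.5 h, and the 665/615 nm TR-FRET ratio was read. EC50 from 4-parameter fit; for specificity, wild-type KRAS replaced G12C, and CypA was omitted to test presenter dependence.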
On the technique in general: In TR-FRET formats the signal depends on donor and acceptor labels being close together.

The test system of the next experiment is pERK in H358 cells. Briefly: pERK inhibition in H358 cells. The conditions noted are these: read-out: Cellular pERK inhibition. Type of experiment: cell-based, human. The method, then: H358 cells (5500 cells) derived from a human lung cancer were plated in a 96 well plate in media (100 uL, RPMI with 10% FBS). After 24 hours, cells were treated for 4 hours with compound or DMSO. Cells were washed twice with room temperature TBS (200 uL) and fixed for 20 minutes with 4% paraformaldehyde diluted with TBS (150 uL). Cells were washed four times for five minutes with 0.1% TritonX/TBS (150 uL) to permeabilize the membrane. Cells were incubated with TBS blocking buffer (100 uL) at room temperature for 60 minutes. Primary antibody (Phospho-p44/42 MAPK (Erk1/2) (Thr202/Tyr204) (D13.14.4E) XP® Rabbit mAb #4370, Cell Signaling Technology; 1:200) was added, and the cells were incubated overnight at 4 C. The cells were washed four times for five minutes with 0.1% Tween 20/TBS (150 uL). Secondary antibody (IRDye® 800CW Goat-Anti-Rabbit IgG, Li-Cor Biosciences; 1:1000) and DRAQ5™ (Invitrogen; 1:2000) was added, and the cells were incubated for 1 hour at room temperature. The cells were washed four times for five minutes with 0.1% Tween 20/TBS (150 uL) and scanned using the LICOR (700 and 800 nm).

The next experiment deals with cyclophilin A (CYPA) (Homo sapiens, UniProt P62937). Briefly: CYPA-compound binary complex formation by SPR. Conditions: read-out: CYPA Binding Affinity. Summed up:
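CypA-Avi captured on a Biotin CAPture chip (4 μg/ml), reference flow cell subtracted. Compounds injected as 10-point 2-fold dilutions from 50 μM in HBS-P+ pH7.4 with 2% DMSO; 60 s association and 60 s dissociation, solvent-corrected. Affinity obtained by steady-state fitting.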

[2] abbreviates: Homo sapiens, NCI-H358, 4 hours treatment.

This note sets out measurements from patent publication US20240139185A1, “COMPOUNDS THAT PARTICIPATE IN COOPERATIVE BINDING AND USES THEREOF” (Revolution Medicines, Inc., priority 2018, published 2024).

Where two headings read alike, the source gives them in different places.

Usually EC50 stands for the concentration giving half of the maximal effect. Higher therefore signals a less potent agent. Regarding `C=CC(=O)N1CCN([C@H](C(=O)N[C@H]2Cc3cc(O)cc(c3)-c3ccc4nc(C)n(c4c3)CC(C)(C)COC(=O)[C@@H]3CCCN(N3)C2=O)C(C)C)C1=O` [Compound 1, (2S)-2-(3-acryloyl-2-oxoimidazolidin-1-yl)-N-((6^3S,4S)-2^5-hydroxy-1^2,10,10-trimethyl-5,7-dioxo-6^1,6^2,6^3,6^4,6^5,6^6-hexahydro-1^1H-8-oxa-1(6,1)-benzo[d]imidazola-6(1,3)-pyridazina-2(1,3)-benzenacycloundecaphane-4-yl)-3-methylbutanamide], the EC50 in experiment [1] was at most 0.5 µM. Besides, the IC50 with pERK in H358 cells (setting [2]) was above 10 µM. The Kd on cyclophilin A (CYPA) is 5 to 15 µM.
For `CC(C)[C@@H](C(=O)N[C@H]1Cc2cc(O)cc(c2)-c2ccc3c(C#N)cn(c3c2)CC(C)(C)CNC(=O)[C@@H]2CCCN(N2)C1=O)N(C)C(=O)C1CN(C(=O)CCl)C1` [Compound 3, 1-(2-chloroacetyl)-N-((2S)-1-(((6^3S,4S)-1^3-cyano-2^5-hydroxy-10,10-dimethyl-5,7-dioxo-6^1,6^2,6^3,6^4,6^5,6^6-hexahydro-1^1H-8-aza-1(6,1)-indola-6(1,3)-pyridazina-2(1,3)-benzenacycloundecaphane-4-yl)amino)-3-methyl-1-oxobutan-2-yl)-N-methylazetidine-3-carboxamide], in that order: at most 0.5 µM, above 10 µM and at most 5 µM.
In experiment [1], `C=CC(=O)N1CCN(C(C(=O)NC2Cc3cc(O)cc(c3)-c3ccc4c(C(C)(C)C#N)cn(c4c3)CC(C)(C)COC(=O)C3CCCN(N3)C2=O)C(C)C)C(=O)C1` (stereo not drawn) [Compound 14] had an EC50 above 5 µM. The IC50 in the experiment on pERK in H358 cells (4 hours treatment) was above 10 µM. Moreover, the Kd at cyclophilin A (CYPA) was above 15 µM.
With `CC1COC(=O)C2CCCN(N2)C(=O)C(NC(=O)C(C(C)C)N(C)C(=O)C2CN(C(=O)C(C)Cl)C2)Cc2cc(O)cc(c2)-c2ccc3c(C(C)(C)C#N)cn(c3c2)C1` (stereo not drawn) [Compound 18], the EC50 in experiment [1] was 0.5 to 5 µM. Moreover, the IC50 in the experiment on pERK in H358 cells (4 hours treatment) was above 10 µM. At cyclophilin A (CYPA), the Kd is above 15 µM.
`CC(C)[C@@H](C(=O)N[C@H]1Cc2cc(O)cc(c2)-c2ccc3c(C(C)(C)C#N)cn(c3c2)C[C@H](C)COC(=O)[C@@H]2CCCN(N2)C1=O)N1CC[C@@H](NC(=O)CCl)C1=O` [Compound 28]: in experiment [1], the EC50 was in the range of 0.5 to 5 µM. Also, the IC50 in the experiment with pERK in H358 cells (4 hours treatment) is above 10 µM. Besides, the Kd on cyclophilin A (CYPA) is at most 5 µM.
Compound `CC(C)[C@@H](C(=O)N[C@H]1Cc2cc(O)cc(c2)-c2ccc3c(C(C)(C)C#N)cn(c3c2)C[C@H](C)COC(=O)[C@@H]2CCCN(N2)C1=O)N1CC[C@@H](N(C)C(=O)CCl)C1=O` [Compound 30] registered an EC50 in experiment [1] of 0.5 to 5 µM. The IC50 in the experiment with pERK in H358 cells (4 hours treatment) lay within 1 to 10 µM. The Kd at cyclophilin A (CYPA) is at most 5 µM.
Compound `CC(C)C(C(=O)NC1Cc2cc(O)cc(c2)-c2ccc3c(C(C)(C)C#N)cn(c3c2)CC(C)(C)COC(=O)C2CCCN(N2)C1=O)N(C)C(=O)C1CCN(C(=O)CCl)C1` (stereo not drawn) [Compound 33] registered an EC50 in experiment [1] of at most 0.5 µM. Also, the IC50 in the experiment on pERK in H358 cells (4 hours treatment) was at most 1 µM. For the same compound, the Kd at cyclophilin A (CYPA) fell in the range of 5 to 15 µM.
Turning to `CC(C)[C@@H](C(=O)N[C@H]1Cc2cc(O)cc(c2)-c2ccc3c(C(C)(C)C#N)cn(c3c2)CC(C)(C)COC(=O)[C@@H]2CCCN(N2)C1=O)N(C)C(=O)C1(F)CN(C(=O)[C@@H](C)Cl)C1` [Compound 35], the EC50 in experiment [1] is above 5 µM. The IC50 with pERK in H358 cells (4 hours treatment) is above 10 µM. Further, at cyclophilin A (CYPA), the Kd lay within 5 to 15 µM.
In experiment [1], `CC(C)[C@@H](C(=O)N[C@H]1Cc2cc(O)cc(c2)-c2ccc3c(C(C)(C)C#N)cn(c3c2)CC(CC#N)COC(=O)[C@@H]2CCCN(N2)C1=O)N(C)C(=O)C1CN(C(=O)CCl)C1` (stereo partly drawn) [Compound 39] gave an EC50 of at most 0.5 µM. Further, the IC50 in the experiment with pERK in H358 cells (4 hours treatment) was above 10 µM. Besides, the Kd at cyclophilin A (CYPA) lay within 5 to 15 µM.
`C=CC(=O)N1CC2(CCN(C(C(=O)NC3Cc4cc(O)cc(c4)-c4ccc5c(C(C)(C)C#N)cn(c5c4)CC(C)(C)COC(=O)C4CCCN(N4)C3=O)C(C)C)C2=O)C1` (stereo not drawn) [Compound 42] gave an EC50 in experiment [1] of 0.5 to 5 µM. Besides, the IC50 in the experiment on pERK in H358 cells (4 hours treatment) fell in the range of 1 to 10 µM. In addition, the Kd on cyclophilin A (CYPA) was in the range of 5 to 15 µM.
Turning to `CC(C)C(C(=O)NC1Cc2cc(O)cc(c2)-c2ccc3c(C(C)(C)C#N)cn(c3c2)CC(C)(C)COC(=O)C2CCCN(N2)C1=O)N1CCC2(CN(C(=O)CCl)C2)C1=O` (stereo not drawn) [Compound 44], the concentration giving a half-maximal response (EC50) in experiment [1] was at most 0.5 µM. Further, the IC50 with pERK in H358 cells (4 hours treatment) fell in the range of 1 to 10 µM. Moreover, the Kd at cyclophilin A (CYPA) is 5 to 15 µM.
For `CC1COC(=O)C2CCCN(N2)C(=O)C(NC(=O)C(C(C)C)N(C)C(=O)C2CN(C(=O)CCl)C2)Cc2cc(O)cc(c2)-c2ccc3c(-c4cccc(C#N)c4)cn(c3c2)C1` (stereo not drawn) [Compound 46], the EC50 in experiment [1] was at most 0.5 µM. The IC50 with pERK in H358 cells (4 hours treatment) is at most 1 µM. Moreover, the Kd on cyclophilin A (CYPA) lay within 5 to 15 µM.
For `COc1ccccc1-c1cn2c3cc(ccc13)-c1cc(O)cc(c1)CC(NC(=O)C(C(C)C)N(C)C(=O)C1CN(C(=O)CCl)C1)C(=O)N1CCCC(N1)C(=O)OCC(C)C2` (stereo not drawn) [Compound 48] the same measures were at most 0.5 µM, 1 to 10 µM and 5 to 15 µM.
For `COc1ccc(-c2cn3c4cc(ccc24)-c2cc(O)cc(c2)C[C@H](NC(=O)[C@H](C(C)C)N(C)C(=O)C2CN(C(=O)CCl)C2)C(=O)N2CCC[C@H](N2)C(=O)OC[C@@H](C)C3)cc1` [Compound 50] the same measures were at most 0.5 µM, 1 to 10 µM and 5 to 15 µM.
Compound `CC[C@@H](C(=O)N[C@H]1Cc2cc(O)cc(c2)-c2ccc3c(C(C)(C)C#N)cn(c3c2)CC(C)(C)COC(=O)[C@@H]2CCCN(N2)C1=O)N(C)C(=O)C1CN(C(=O)CCl)C1` [Compound 56] had a concentration giving a half-maximal response (EC50) in experiment [1] of at most 0.5 µM. The IC50 in the experiment on pERK in H358 cells (4 hours treatment) was above 10 µM. Also, at cyclophilin A (CYPA), the Kd was above 15 µM.
For `CN(C(=O)C1CN(C(=O)CCl)C1)[C@@H](CC1CC1)C(=O)N[C@H]1Cc2cc(O)cc(c2)-c2ccc3c(C(C)(C)C#N)cn(c3c2)CC(C)(C)COC(=O)[C@@H]2CCCN(N2)C1=O` [Compound 57], in that order: at most 0.5 µM, 1 to 10 µM and above 15 µM.
For `CC(C)[C@@H](C(=O)N[C@H]1Cc2cc(O)cc(n2)-c2ccc3c(C(C)(C)C#N)cn(c3c2)C[C@H](C)COC(=O)[C@@H]2CCCN(N2)C1=O)N(C)C(=O)C1CN(C(=O)CCl)C1` [Compound 59], in that order: above 5 µM, above 10 µM and above 15 µM.
In experiment [1], `CC(C)[C@@H](C(=O)N[C@H]1Cc2cc(O)cc(n2)-c2ccc3c(C(C)(C)C#N)cn(c3c2)C[C@H](C)CNC(=O)[C@@H]2CCCN(N2)C1=O)N(C)C(=O)C1CN(C(=O)CCl)C1` [Compound 60] showed a concentration for a half-maximal effect (EC50) above 5 µM. Moreover, in the experiment with pERK in H358 cells (4 hours treatment), the IC50 was above 10 µM. For the same compound, the Kd on cyclophilin A (CYPA) is 5 to 15 µM.
For `CCN(C(=O)C1CN(C(=O)CCl)C1)[C@H](C(=O)N[C@H]1Cc2cc(O)cc(c2)-c2ccc3c(C(C)(C)C#N)cn(c3c2)CC(C)(C)COC(=O)[C@@H]2CCCN(N2)C1=O)C(C)C` [Compound 65], in that order: at most 0.5 µM, 1 to 10 µM and above 15 µM.
For `CC(C)[C@@H](C(=O)N[C@H]1Cc2cc(O)cc(c2)-c2ccc3c4cc(C#N)ccc4n(c3c2)CC(C)(C)COC(=O)[C@@H]2CCCN(N2)C1=O)N(C)C(=O)C1CN(C(=O)CCl)C1` [Compound 68], in that order: at most 0.5 µM, 1 to 10 µM and at most 5 µM.
For `CC(C)[C@@H](C(=O)N[C@H]1Cc2cc(O)cc(c2)-c2ccc3c(Cc4ccccn4)cn(c3c2)C[C@H](C)COC(=O)[C@@H]2CCCN(N2)C1=O)N(C)C(=O)C1CN(C(=O)CCl)C1` [Compound 69], in that order: at most 0.5 µM, 1 to 10 µM and at most 5 µM.
With `CON=C(C)c1cn2c3cc(ccc13)-c1cc(O)cc(c1)CC(NC(=O)C(C(C)C)N(C)C(=O)C1CN(C(=O)CCl)C1)C(=O)N1CCCC(N1)C(=O)OCC(C)C2` (stereo not drawn) [Compound 73], in experiment [1], the 50% effective concentration (EC50) is at most 0.5 µM. Further, the IC50 with pERK in H358 cells (4 hours treatment) lay within 1 to 10 µM. The Kd on cyclophilin A (CYPA) was at most 5 µM.
For `CC(C)[C@@H](C(=O)N[C@H]1Cc2cc(O)cc(c2)-c2ccc3c(CCC#N)cn(c3c2)C[C@H](C)COC(=O)[C@@H]2CCCN(N2)C1=O)N(C)C(=O)C1CN(C(=O)CCl)C1` [Compound 76] the same measures were at most 0.5 µM, at most 1 µM and at most 5 µM.
In turn, `CC1COC(=O)C2CCCN(N2)C(=O)C(NC(=O)C(C(C)C)N(C)C(=O)C2CN(C(=O)CCl)C2)Cc2cc(O)cc(c2)-c2ccc3c(C(C)C#N)cn(c3c2)C1` (stereo not drawn) [Compound 77] registered a concentration giving a half-maximal response (EC50) in experiment [1] of at most 0.5 µM. Moreover, in the experiment with pERK in H358 cells (4 hours treatment), the IC50 is at most 1 µM. Also, the Kd on cyclophilin A (CYPA) was at most 5 µM.
